The nature of this data set: in vitro. The following applies: human, hek293t cells.
As a reminder, the viability is a read-out of living cells in per cent, often relative to untreated cells. In the case of `C=CC(=O)N1CCC(C(=O)N[C@H]2CCC[C@H]2O)CC1` [2-K04, N-[(1S,2R)-2-hydroxycyclopentyl]-1-(prop-2-enoyl)piperidine-4-carboxamide], the viability at 48 h, 25 µM was determined as 84.2%.
Consider `N#CC(=Cc1cccc(O)c1)C(=O)Nc1ccccc1C(F)(F)F` [9-A20, 2-cyano-3-(3-hydroxyphenyl)-N-[2-(trifluoromethyl)phenyl]prop-2-enamide], for which the viability at 48 h, 25 µM is 109%.
The same measure for `COc1ccc(C(C)(C)C)cc1NC(=O)CCl` [4-C07, N-(5-tert-butyl-2-methoxyphenyl)-2-chloroacetamide]: 0.79%; for `CC(Cl)C(=O)Nc1cc(F)ccc1F` (stereo not drawn) [6-A09, 2-chloro-N-(2,5-difluorophenyl)propanamide]: 96%; for `Cc1cc(C(=O)CCl)co1` [10-A13, 2-chloro-1-(5-methylfuran-3-yl)ethan-1-one]: 41.5%.
`C=CC(=O)N(Cc1cn(C2CCC2)nn1)c1ccc(F)cc1` [1-G09, N-[(1-cyclobutyl-1H-1,2,3-triazol-4-yl)methyl]-N-(4-fluorophenyl)prop-2-enamide]: the viability at 48 h, 25 µM worked out at 37.6%.
The same measure for `CC(Cl)C(=O)N1CCOCC1` (stereo not drawn) [5-H09, 2-chloro-1-(morpholin-4-yl)propan-1-one]: 103%; for `Cc1noc(C)c1S(=O)(=O)N1CCCN(C(=O)C(C)Cl)CC1` (stereo not drawn) [7-O11, 2-chloro-1-{4-[(3,5-dimethyl-1,2-oxazol-4-yl)sulfonyl]-1,4-diazepan-1-yl}propan-1-one]: 89.5%; for `Cc1cc(CN(C(=O)CCl)c2cn(C)nn2)ccc1Cl` [5-I12, 2-chloro-N-[(4-chloro-3-methylphenyl)methyl]-N-(1-methyl-1H-1,2,3-triazol-4-yl)acetamide]: 13.7%.
For `C=CC(=O)Nc1cccc(-c2cn(C)nn2)c1` [1-K14, N-[3-(1-methyl-1H-1,2,3-triazol-4-yl)phenyl]prop-2-enamide], the viability at 48 h, 25 µM was found to be 82.8%.
Turning to `Cc1ccc(C)n1C1CCC(NC(=O)CCl)CC1` (stereo not drawn) [7-F18, 2-chloro-N-[4-(2,5-dimethyl-1H-pyrrol-1-yl)cyclohexyl]acetamide], the viability at 48 h, 25 µM came to 106%.
The same measure for `CC(Cl)C(=O)NC(C)c1nnc2n1CCCC2` (stereo not drawn) [6-H13, 2-chloro-N-(1-{5H,6H,7H,8H-[1,2,4]triazolo[4,3-a]pyridin-3-yl}ethyl)propanamide]: 105%; for `CC(Cl)C(=O)NC1CCN(c2nnnn2C)CC1` (stereo not drawn) [7-K08, 2-chloro-N-[1-(1-methyl-1H-1,2,3,4-tetrazol-5-yl)piperidin-4-yl]propanamide]: 82.1%.
For `C=CC(=O)NCc1cn(C)nc1-c1ccccn1` [2-H03, N-{[1-methyl-3-(pyridin-2-yl)-1H-pyrazol-4-yl]methyl}prop-2-enamide], the viability at 48 h, 25 µM came to 79.4%.
Take `C=CC(=O)N1CCC(c2ccc(OC)cc2)C1` (stereo not drawn) [1-N16, 1-[3-(4-methoxyphenyl)pyrrolidin-1-yl]prop-2-en-1-one]: the viability at 48 h, 25 µM was 92.1%.
On to `CC(=O)Nc1cccc(N2C(=O)C=CC2=O)c1` [10-D09, N-[3-(2,5-dioxo-2,5-dihydro-1H-pyrrol-1-yl)phenyl]acetamide], for which the viability at 48 h, 25 µM came to 104%.
For `CC(Cl)C(=O)NC1CCc2cc(C#N)ccc21` (stereo not drawn) [5-N17, 2-chloro-N-(5-cyano-2,3-dihydro-1H-inden-1-yl)propanamide] the value was 105%; for `N#CC(=Cc1cccnc1)C(=O)Nc1cccc2ccccc12` [8-L17, 2-cyano-N-(naphthalen-1-yl)-3-(pyridin-3-yl)prop-2-enamide], 110%; for `CC(=O)N1CCc2cc(C(=O)C(C)Cl)ccc21` (stereo not drawn) [10-L22, 1-(1-acetyl-2,3-dihydro-1H-indol-5-yl)-2-chloropropan-1-one], 82.9%.
Consider `Cc1cc(C)c(NC(=O)C(C#N)=Cc2ccccc2)c(C)c1` [8-E19, 2-cyano-3-phenyl-N-(2,4,6-trimethylphenyl)prop-2-enamide], for which the viability at 48 h, 25 µM came out at 29.4%.
Regarding `N#CC(=Cc1ccc(N2CCOCC2)cc1)C(=O)Nc1ccccc1F` [9-B03, 2-cyano-N-(2-fluorophenyl)-3-[4-(morpholin-4-yl)phenyl]prop-2-enamide], the viability at 48 h, 25 µM is 89.3%.
With `COc1ccc(OC)c(NC(=O)CCl)c1` [6-O04, 2-chloro-N-(2,5-dimethoxyphenyl)acetamide], the viability at 48 h, 25 µM amounted to 0.314%.
As for `C=CC(=O)N1CCNC(=O)C1Cc1nc2ccccc2o1` (stereo not drawn) [1-B20, 3-[(1,3-benzoxazol-2-yl)methyl]-4-(prop-2-enoyl)piperazin-2-one], the viability at 48 h, 25 µM came to 82.9%.
As for `CCNC(=O)C(C#N)=Cc1ccc(O)c(OCC)c1` [8-O09, 2-cyano-3-(3-ethoxy-4-hydroxyphenyl)-N-ethylprop-2-enamide], the viability at 48 h, 25 µM was 98.9%.
For `C=CC(=O)N(CC)Cc1cccc2c1OCO2` [3-I05, N-[(1,3-dioxaindan-4-yl)methyl]-N-ethylprop-2-enamide] the value was 47.8%; for `C=CC(=O)NCc1ccc(C(=O)N2CCC(C#N)CC2)cc1` [3-P05, N-{[4-(4-cyanopiperidine-1-carbonyl)phenyl]methyl}prop-2-enamide], 46.3%; for `C=CC(=O)N1CCCC(CS(=O)(=O)NC)C1` (stereo not drawn) [2-E18, N-methyl-1-[1-(prop-2-enoyl)piperidin-3-yl]methanesulfonamide], 95%.
For `C=CC(=O)N1CCC(C(=O)N[C@@H](C)C(=O)NC)(c2ccccc2)CC1` [2-B16, (2S)-N-methyl-2-{[4-phenyl-1-(prop-2-enoyl)piperidin-4-yl]formamido}propanamide] the value was 87%.
In the case of `CC(NC(=O)CCl)c1cc(C(F)(F)F)[nH]n1` (stereo not drawn) [5-P11, 2-chloro-N-{1-[5-(trifluoromethyl)-1H-pyrazol-3-yl]ethyl}acetamide], the viability at 48 h, 25 µM was found to be 0.786%.
Regarding `C=CC(=O)NC(Cn1cncn1)c1ccccc1` (stereo not drawn) [3-F17, N-[1-phenyl-2-(1H-1,2,4-triazol-1-yl)ethyl]prop-2-enamide], the viability at 48 h, 25 µM was determined as 71.9%.
In the case of `O=C(CCl)Nc1cc(C(F)(F)F)ccc1Cl` [4-J04, 2-chloro-N-[2-chloro-5-(trifluoromethyl)phenyl]acetamide], the viability at 48 h, 25 µM was 1.3%.
For `CCCCNC(=O)C(C#N)=Cc1cccc(Cl)c1Cl` [9-H11, N-butyl-2-cyano-3-(2,3-dichlorophenyl)prop-2-enamide], the viability at 48 h, 25 µM was 24.1%.
Turning to `C=CC(=O)NC1CCC(S(C)(=O)=O)C1` (stereo not drawn) [3-F18, N-(3-methanesulfonylcyclopentyl)prop-2-enamide], the viability at 48 h, 25 µM was determined as 94.3%.
In the case of `COc1c(C)cnc(CN2CCC(N(C)C(=O)C(C)Cl)CC2)c1C` (stereo not drawn) [6-A04, 2-chloro-N-{1-[(4-methoxy-3,5-dimethylpyridin-2-yl)methyl]piperidin-4-yl}-N-methylpropanamide], the viability at 48 h, 25 µM was found to be 124%.
`N#CC(=Cc1cccs1)C(=O)Nc1ccc(F)cc1` [8-F10, 2-cyano-N-(4-fluorophenyl)-3-(thiophen-2-yl)prop-2-enamide]: the viability at 48 h, 25 µM worked out at 102%.
Consider `CCN(Cc1ccc(Cl)s1)C(=O)CCl` [6-M11, 2-chloro-N-[(5-chlorothiophen-2-yl)methyl]-N-ethylacetamide], for which the viability at 48 h, 25 µM is 0.655%.

The values are drawn from publication PMC11995724, “Antibiotic target discovery by integrated phenotypic and activity-based profiling of electrophilic fragments” (Cell chemical biology, 2025).
